Measured values reported in patent US20190290683A1 (KEIO UNIVERSITY, priority 2016, published 2019).
Like-named read-outs stand apart in the source and are kept apart here.

What was measured:
hemorrhagic shock model = settings: for Exsanguinated/body weight (ml/100 g): exsanguinated volume per 100 g of body weight to maintain blood pressure at 30-35 mmHg
Protocol: In this Example, the effect of hydrogen gas on a hemorrhagic shock model was evaluated according to the test protocol shown in FIG. 1.
With SD rats (male, 250-300 g), an anesthetic drug was intraperitoneally administered to perform general anesthesia. Subsequently, a PE catheter was inserted into the left femoral artery to perform direct arterial pressure monitoring, and further, an exsanguination catheter from the right femoral artery and a left ventricle catheter for cardiac function measurement from the right common artery were each inserted.
The shock phase was initiated with the initiation of exsanguination. Exsanguination was slowly performed over 15 minutes, and for a total of 60 minutes since the initiation of exsanguination, the mean arterial pressure was maintained at 30-35 mmHg.
The resuscitation phase was initiated with the initiation of resuscitation by transfusion. Transfusion resuscitation by four times the exsanguinated volume of saline was performed over 15 minutes. Test gas inhalation (hydrogen group (21% oxygen+1.3% hydrogen) and control group (21% oxygen)) were performed for a total of 3 hours from the initiation of exsanguination to 2 hours after the initiation of resuscitation. In doing so, cardiac function (LVEDP, ±dP/dt) during the same period was also recorded.
The initiation of the observation phase was 2 hours after the initiation of the resuscitation phase, and observation was performed for 4 hours thereafter (6 hours from the initiation of the resuscitation phase). During this period, blood pressure (systolic, diastolic, mean), heart rate, and the like were measured with artificial respiration in room air.
Lactic acid value and blood gas at the initiation point of shock phase (baseline), the initiation point of resuscitation phase (0 minute), the initiation point of observation phase (120 minutes), and the end-of-test timepoint (360 minutes) were each measured and evaluated.

[1] = system: rat hemorrhagic shock model; settings: 6 hours after initiation of resuscitation; 1.3% hydrogen+26% oxygen+72.7% nitrogen inhaled 0 to 120 minutes (resuscitation phase only); control 30%
Protocol: In this test, improvement of the survival rate by hydrogen inhalation at the initiation point of resuscitation after shock in rat hemorrhagic shock model was evaluated.
The procedure in SD rats (250-300 g) to exsanguinate so that mean arterial pressure of 30-35 mmHg was maintained for 60 minutes, and then resuscitate with four times the exsanguinated volume of saline over 15 minutes to evaluate the survival rate at 6 hours after initiation of resuscitation was according to [Example 1].
In this test, test gas was given by inhalation as follows.

[2] = change over time after initiation of resuscitation, vs control group
[3] = change over time after initiation of resuscitation, vs control group, throughout the observation period
[4] = electrolyte at 120 minutes, vs control group

SMILES: [HH] [hydrogen gas]
- heart rate (hemorrhagic shock model; after initiation of resuscitation, vs control group): no great difference
- pH (hemorrhagic shock model; blood gas at 120 minutes, vs control group, normal value about 7.4): statistically significantly higher
- HCO3 (hemorrhagic shock model; blood gas at 120 minutes, vs control group, normal value about 24): statistically significantly higher
- BE (base excess) (hemorrhagic shock model; blood gas at 120 minutes, vs control group, normal value about -2): statistically significantly improved
- left ventricular end-diastolic pressure (LVEDP) (hemorrhagic shock model; [2]): no statistically significantly difference
- negative dP/dt (hemorrhagic shock model; [2]): no statistically significantly difference
- positive dP/dt (hemorrhagic shock model; [2]): no statistically significantly difference
- diastolic blood pressure (hemorrhagic shock model; [3]): higher value
- mean blood pressure (hemorrhagic shock model; [3]): higher value
- systolic blood pressure (hemorrhagic shock model; [3]): higher value
- K (hemorrhagic shock model; [4]): statistically significantly lower
- Na (hemorrhagic shock model; [4]): no statistically significant difference
- survival (individuals surviving) (hemorrhagic shock model; end-of-test timepoint at 6 hours after initiation of resuscitation, control 3/10): 8/10
- Exsanguinated/body weight (ml/100 g) (hemorrhagic shock model; 21% oxygen+1.3% hydrogen, N = 15): 2.60±0.40 ml/100 g
- Exsanguinated/body weight (ml/100 g) (hemorrhagic shock model; 21% oxygen+1.3% hydrogen, N = 15, listed as H2): 2.60 ± 0.40 ml/100 g
- Exsanguinated (hemorrhagic shock model; exsanguinated volume to maintain mean arterial pressure at 30-35 mmHg, 21% oxygen+1.3% hydrogen, N = 15): 7.03 ± 1.15 mL
- hemoglobin (Hb) (hemorrhagic shock model; extent of anemia at 120 minutes, vs control group): no statistically significant difference
- lactic acid value (hemorrhagic shock model; initiation point of observation phase (120 minutes), vs control group, normal value 1.0 or less): statistically significantly lower
- PaCO2 (Partial pressure of carbon dioxide) (hemorrhagic shock model; oxygenation indicator at 120 minutes, vs control group, normal around 40 mmHg): no statistical difference
- PaO2 (Partial pressure of oxygen) (hemorrhagic shock model; oxygenation indicator at 120 minutes, vs control group, normal around 100 mmHg): higher values for the control group
- survival rate [1]: 50%
